Earlier results as cited in US20010007758A1, “Treatment of multiple sclerosis using COP-1 and Th2-enhancing cytokines” (Autoimmune, Inc., priority 1998, published 2001).

Assays:
[1] = system: experimental allergic encephalitis (EAE); details: in vivo
[2] = system: T suppressor cells specific for MBP
[3] = system: MBP-specific T cells; details: experiments in mice
[4] = system: T cell; details: oral administration to rats
[5] = system: MS; details: daily subcutaneous injections of 20 mg
[6] = system: EAE; details: oral administration to rats
[7] = system: EAE; details: oral feeding; EAE induced with 0.4 mg mouse MBP; monitored 35 days

## glatiramer acetate [COP-1]
[1]
  encephalitogenicity (causes EAE when injected): not encephalitogenic
[2]
  induction of T suppressor cells specific for MBP: induce T suppressor cells
[3]
  effect on MBP-specific T cells involved in destruction of central nervous system tissue in EAE: specifically inhibits
[4]
  T cell proliferative responses: inhibited
  TH1 cytokine production: inhibited
[5]
  Expanded Disability Status Scale: significant improvement
  annualized relapse rate, lower in treated patients: 29%
  proportion of patients that did not have a relapse in clinical disease: 34%
[6]
  severity and incidence of EAE: suppressed

B1: MBP: myelin basic protein, a component of myelin in the central nervous system (protein, UniProt P02686 1-304, looked up)
Myelin basic protein: MGNHAGKRELNAEKASTNSETNRGESEKKRNLGELSRTTSEDNEVFGEADANQNNGTSSQDTAVTDSKRTADPKNAWQDAHPADPGSRPHLIRLFSRDAPGREDNTFKDRPSESDELQTIQEDSAATSESLDVMASQKRPSQRHGSKYLATASTMDHARHGFLPRHRDTGILDSIGRFFGGDRGAPKRGSGKDSHHPARTAHYGSLPQKSHGRTQDENPVVHFFKNIVTPRTPPPSQGKGRGLSLSRFSWGAEGQRPGFGYGGRASDYKSAHKGFKGVDAQGTLSKIFKLGGRDSRSGSPMARR
[7]
  delay in disease onset: 22 days
[1]
  encephalitogenicity (causes EAE when injected): highly encephalitogenic

B2: IL-4: interleukin-4, a Th2-enhancing cytokine (protein, UniProt P05112 25-153, looked up)
Interleukin-4: HKCDITLQEIIKTLNSLTEQKTLCTELTVTDIFAASKNTTEKETFCRAATVLRQFYSHHEKDTRCLGATAQQFHRHKQLIRFLKRLDRNLWGLAGLNSCPVKEANQSTLENFLERLKTIMREKYSKCSS
[7]
  delay in disease onset: 21 days
